Conditions in all cases: Hit No
Test [1] deals with T1, Adenine DNA glycosylase (Homo sapiens) (UniProt Q9UIF7).
T1 sequence (whole entry): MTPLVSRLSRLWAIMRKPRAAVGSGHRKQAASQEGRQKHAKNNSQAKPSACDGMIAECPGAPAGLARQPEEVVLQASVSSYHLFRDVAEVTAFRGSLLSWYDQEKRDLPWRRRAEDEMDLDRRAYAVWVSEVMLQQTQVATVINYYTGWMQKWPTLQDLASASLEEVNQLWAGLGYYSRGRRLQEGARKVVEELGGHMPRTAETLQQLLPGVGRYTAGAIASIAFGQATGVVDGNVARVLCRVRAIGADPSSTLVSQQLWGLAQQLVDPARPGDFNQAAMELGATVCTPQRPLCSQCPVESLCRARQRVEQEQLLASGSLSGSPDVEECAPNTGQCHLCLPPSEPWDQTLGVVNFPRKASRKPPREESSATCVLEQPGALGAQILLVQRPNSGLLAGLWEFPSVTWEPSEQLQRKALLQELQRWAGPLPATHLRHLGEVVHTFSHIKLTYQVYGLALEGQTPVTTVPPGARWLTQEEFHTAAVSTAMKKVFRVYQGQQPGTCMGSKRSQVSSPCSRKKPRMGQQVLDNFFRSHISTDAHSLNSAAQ
Description: Inhibition of MUTYH by quantifying inhibition of MUTYH-mediated cleavage and dissociation of quenched duplex DNA oligonucleotides, measured as fluorescence at 594 nm. To generate a functional strand incision and increase turn-over this assay is coupled to APE1.

For test [2], the target named is Endonuclease 8-like 1 (Homo sapiens) (UniProt Q96FI4).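 Note: fluorescence at 594 nm from quenched duplex DNA oligonucleotides released by NEIL1 cleavage and strand separation, reported as reduction of this enzyme activity.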
Endonuclease 8-like 1 (Homo sapiens), sequence (Q96FI4 whole entry): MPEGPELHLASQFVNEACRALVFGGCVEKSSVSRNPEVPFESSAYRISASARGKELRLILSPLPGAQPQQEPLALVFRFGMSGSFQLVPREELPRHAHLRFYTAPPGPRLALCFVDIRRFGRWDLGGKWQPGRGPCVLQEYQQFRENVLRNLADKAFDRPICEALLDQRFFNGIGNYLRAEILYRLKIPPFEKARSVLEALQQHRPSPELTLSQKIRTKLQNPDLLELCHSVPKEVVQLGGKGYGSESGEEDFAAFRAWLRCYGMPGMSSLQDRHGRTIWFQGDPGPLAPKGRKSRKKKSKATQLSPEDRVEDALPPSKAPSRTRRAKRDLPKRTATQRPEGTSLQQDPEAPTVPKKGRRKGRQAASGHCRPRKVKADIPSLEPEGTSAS
Description: Inhibition of NEIL1 by quantifying inhibition of NEIL1-mediated cleavage and dissociation of quenched duplex DNA oligonucleotides, measured as fluorescence at 594 nm.
In test [3] the target is T2, Endonuclease 8-like 2 (Homo sapiens) (UniProt Q969S2).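 Note: fluorescence at 594 nm reports NEIL2 cutting and release of a quenched double-stranded DNA oligo substrate, reduced signal read as inhibition.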
T2 sequence (whole entry): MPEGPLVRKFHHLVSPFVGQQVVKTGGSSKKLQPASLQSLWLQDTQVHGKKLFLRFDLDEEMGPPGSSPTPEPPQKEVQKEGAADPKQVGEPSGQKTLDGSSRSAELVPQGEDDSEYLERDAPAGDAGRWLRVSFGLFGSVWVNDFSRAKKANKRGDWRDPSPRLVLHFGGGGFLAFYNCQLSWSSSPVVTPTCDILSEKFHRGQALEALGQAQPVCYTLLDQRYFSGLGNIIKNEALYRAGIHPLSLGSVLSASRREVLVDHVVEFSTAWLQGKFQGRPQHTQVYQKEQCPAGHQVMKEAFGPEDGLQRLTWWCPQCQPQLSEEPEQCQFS
Description: Inhibition of NEIL2 by quantifying inhibition of NEIL2-mediated cleavage and dissociation of quenched duplex DNA oligonucleotides, measured as fluorescence at 594 nm.

In test [4] the target is N-glycosylase/DNA lyase (Homo sapiens) (UniProt O15527).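 Note: OGG1 cleavage of a quenched duplex DNA oligonucleotide, coupled to APE1 for strand incision, read as fluorescence at 594 nm.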
N-glycosylase/DNA lyase (Homo sapiens), sequence (O15527 whole entry): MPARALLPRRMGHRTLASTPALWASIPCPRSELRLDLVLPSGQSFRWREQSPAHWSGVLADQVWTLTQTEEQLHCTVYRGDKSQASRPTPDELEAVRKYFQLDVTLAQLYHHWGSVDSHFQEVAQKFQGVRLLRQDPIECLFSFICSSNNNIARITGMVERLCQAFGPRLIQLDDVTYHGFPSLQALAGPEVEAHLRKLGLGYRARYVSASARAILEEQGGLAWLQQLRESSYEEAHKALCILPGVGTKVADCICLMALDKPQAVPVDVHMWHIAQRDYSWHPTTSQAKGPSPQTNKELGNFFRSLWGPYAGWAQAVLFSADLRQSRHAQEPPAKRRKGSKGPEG
Description: Inhibition of OGG1 by quantifying inhibition of OGG1-mediated cleavage and dissociation of quenched duplex DNA oligonucleotides, measured as fluorescence at 594 nm. To generate a functional strand incision and increase turn-over this assay is coupled to APE1.
Test [5] deals with T3, Single-strand selective monofunctional uracil DNA glycosylase (Homo sapiens) (UniProt Q53HV7).
T3 sequence (whole entry): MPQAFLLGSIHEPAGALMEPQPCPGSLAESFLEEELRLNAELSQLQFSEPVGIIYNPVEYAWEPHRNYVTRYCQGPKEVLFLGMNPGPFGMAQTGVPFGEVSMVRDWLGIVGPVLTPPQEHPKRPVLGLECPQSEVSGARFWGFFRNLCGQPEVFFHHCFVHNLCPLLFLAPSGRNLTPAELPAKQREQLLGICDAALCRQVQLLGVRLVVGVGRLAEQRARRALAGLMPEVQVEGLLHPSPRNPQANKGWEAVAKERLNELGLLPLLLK
Description: Inhibition of SMUG1 by quantifying inhibition of SMUG1-mediated cleavage and dissociation of quenched duplex DNA oligonucleotides, measured as fluorescence at 594 nm. To generate a functional strand incision and increase turn-over this assay is coupled to APE1.

In test [6] the target is G/T mismatch-specific thymine DNA glycosylase (Homo sapiens) (UniProt Q13569).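 Note: human TDG cleavage of quenched duplex DNA oligonucleotides coupled to APE1, strand release read as fluorescence at 594 nm, inhibition of TDG activity.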
G/T mismatch-specific thymine DNA glycosylase (Homo sapiens), sequence (Q13569 whole entry, the tested form may be a part): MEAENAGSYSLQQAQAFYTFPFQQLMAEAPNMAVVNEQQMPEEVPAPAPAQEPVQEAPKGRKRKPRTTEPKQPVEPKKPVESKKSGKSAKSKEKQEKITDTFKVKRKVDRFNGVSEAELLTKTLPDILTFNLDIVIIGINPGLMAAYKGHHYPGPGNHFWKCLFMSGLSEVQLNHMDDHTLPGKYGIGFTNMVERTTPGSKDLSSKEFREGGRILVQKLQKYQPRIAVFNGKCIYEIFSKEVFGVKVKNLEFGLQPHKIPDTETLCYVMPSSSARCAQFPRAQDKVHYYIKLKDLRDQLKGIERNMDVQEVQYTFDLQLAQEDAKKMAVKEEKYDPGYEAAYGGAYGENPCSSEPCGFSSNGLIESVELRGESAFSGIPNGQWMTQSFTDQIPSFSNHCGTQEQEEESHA
Description: Inhibition of TDG by quantifying inhibition of TDG-mediated cleavage and dissociation of quenched duplex DNA oligonucleotides, measured as fluorescence at 594 nm. To generate a functional strand incision and increase turn-over this assay is coupled to APE1.
In test [7] the target is Methyl-CpG-binding domain protein 4 (Homo sapiens) (UniProt O95243).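 Note: MBD4 activity read as fluorescence at 594 nm from cleavage and release of a quenched duplex DNA oligonucleotide, with APE1 coupled to incise the strand and raise turnover.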
Methyl-CpG-binding domain protein 4 (Homo sapiens), sequence (O95243 whole entry, the tested form may be a part): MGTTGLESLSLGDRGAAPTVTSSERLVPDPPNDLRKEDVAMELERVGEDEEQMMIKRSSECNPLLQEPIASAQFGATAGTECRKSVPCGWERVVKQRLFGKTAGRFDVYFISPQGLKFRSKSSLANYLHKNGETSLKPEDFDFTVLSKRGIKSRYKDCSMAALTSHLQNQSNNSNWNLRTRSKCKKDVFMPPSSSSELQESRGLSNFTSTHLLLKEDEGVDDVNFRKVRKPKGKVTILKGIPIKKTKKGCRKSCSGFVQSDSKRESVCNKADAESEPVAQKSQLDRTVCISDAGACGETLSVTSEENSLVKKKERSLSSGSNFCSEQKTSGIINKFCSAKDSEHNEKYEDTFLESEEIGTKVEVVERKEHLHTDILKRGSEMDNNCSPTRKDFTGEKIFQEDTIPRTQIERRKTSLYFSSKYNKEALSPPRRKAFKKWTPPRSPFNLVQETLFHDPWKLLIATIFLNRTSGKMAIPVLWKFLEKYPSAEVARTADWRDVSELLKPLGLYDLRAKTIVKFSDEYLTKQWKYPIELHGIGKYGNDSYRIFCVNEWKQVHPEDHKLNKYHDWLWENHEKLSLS
Description: Inhibition of MBD4 by quantifying inhibition of MBD4-mediated cleavage and dissociation of quenched duplex DNA oligonucleotides, measured as fluorescence at 594 nm. To generate a functional strand incision and increase turn-over this assay is coupled to APE1.
Test [8] concerns the target Uracil-DNA glycosylase (Homo sapiens) (UniProt P13051).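 Note: UNG excision on a quenched double-stranded DNA oligo probe, with APE1 added for strand incision and turnover, read as fluorescence at 594 nm as strands separate.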
Description: Inhibition of UNG by quantifying inhibition of UNG-mediated cleavage and dissociation of quenched duplex DNA oligonucleotides, measured as fluorescence at 594 nm. To generate a functional strand incision and increase turn-over this assay is coupled to APE1.

For orientation: inhibition means the drop in the measured response relative to a control, in per cent.

Uracil-DNA glycosylase (Homo sapiens), sequence (P13051 whole entry): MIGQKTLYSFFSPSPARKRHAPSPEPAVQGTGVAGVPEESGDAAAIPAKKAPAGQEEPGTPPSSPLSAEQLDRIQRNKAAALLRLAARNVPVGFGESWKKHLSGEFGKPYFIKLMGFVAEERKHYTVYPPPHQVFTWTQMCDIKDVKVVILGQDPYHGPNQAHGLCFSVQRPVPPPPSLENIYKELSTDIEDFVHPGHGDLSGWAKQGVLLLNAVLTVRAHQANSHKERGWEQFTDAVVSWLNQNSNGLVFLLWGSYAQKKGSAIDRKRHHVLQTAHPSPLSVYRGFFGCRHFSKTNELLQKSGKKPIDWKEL

In the case of `Cc1cc(C(=O)N2Cc3cnn(C)c3Nc3ccccc32)ccc1CNC(=O)N1CCC[C@H]1C(=S)N1CCCN(C)CC1`, the inhibition was -9.83% in test [1] (Compound Concentration 10.0 uM); -1.83% in test [2] (Compound Concentration 10.0 uM); 2.51% in test [3] (Compound Concentration 10.0 uM); -7% in test [4] (Compound Concentration 10.0 uM); -2.21% in test [5] (Compound Concentration 10.0 uM); -7.26% in test [6] (Compound Concentration 10.0 uM).
As for `NC[C@H](O)c1ccc(O)c(O)c1`, the inhibition was -7.66% in test [1] (Compound Concentration 10.0 uM), 2.61% in test [2] (Compound Concentration 10.0 uM), -0.983% in test [3] (Compound Concentration 10.0 uM) and -2.34% in test [4] (Compound Concentration 10.0 uM).
With `Cc1c(CC(=O)O)c2cccnc2n1Cc1ccc(S(C)(=O)=O)cc1C(F)(F)F`, the inhibition in test [1] (Compound Concentration 10.0 uM) is 7.57%; in test [2] (Compound Concentration 10.0 uM) it was 0.834%; in test [3] (Compound Concentration 10.0 uM), 7.75%; in test [4] (Compound Concentration 10.0 uM) it was -4.75%; in test [5] (Compound Concentration 10.0 uM) it was -4.39%; in test [6] (Compound Concentration 10.0 uM), -3.98%.
Turning to `C(#Cc1cccc(CN2CCOCC2)c1)CCN1CCCCC1`, the inhibition was 0.0339% in test [7] (Compound Concentration 10.0 uM); -3.69% in test [1] (Compound Concentration 10.0 uM); 11.2% in test [2] (Compound Concentration 10.0 uM); -2.73% in test [3] (Compound Concentration 10.0 uM); -4.46% in test [4] (Compound Concentration 10.0 uM); -7.54% in test [5] (Compound Concentration 10.0 uM). Further, the inhibition in test [6] (Compound Concentration 10.0 uM) was -1.72%.
Take `CCOC(=O)c1c(/C(C#N)=C\N)c2ccc(Cl)c(Cl)c2n1C`: the inhibition in test [1] (Compound Concentration 1.0 uM) is -2.85%; in test [2] (Compound Concentration 1.0 uM), -2.9%; in test [3] (Compound Concentration 1.0 uM) it was -5.96%; in test [4] (Compound Concentration 1.0 uM) it was -3.98%; in test [5] (Compound Concentration 1.0 uM), 12.4%; in test [6] (Compound Concentration 1.0 uM) it was 41.6%. For the same compound, in test [8] (Compound Concentration 1.0 uM), the inhibition turned out to be 0.379%.
As to `NC[C@@H]1O[C@H](C23CC4CC(CC(C4)C2)C3)Cc2c1ccc(O)c2O`, the inhibition was -8.04% in test [7] (Compound Concentration 10.0 uM); 23.1% in test [1] (Compound Concentration 10.0 uM); 18.5% in test [2] (Compound Concentration 10.0 uM); 24.7% in test [3] (Compound Concentration 10.0 uM); 12.4% in test [5] (Compound Concentration 10.0 uM); 31.8% in test [6] (Compound Concentration 10.0 uM). The inhibition in test [8] (Compound Concentration 10.0 uM) is -2.15%.
Take `COc1cccc([C@@H](C)NCCCc2ccccc2Cl)c1`: the inhibition in test [1] (Compound Concentration 10.0 uM) is -7.79%; in test [2] (Compound Concentration 10.0 uM) it was -0.352%; in test [4] (Compound Concentration 10.0 uM), -9.29%; in test [5] (Compound Concentration 10.0 uM), 3.94%; in test [6] (Compound Concentration 10.0 uM) it was 6.54%.
With `CC(C)c1cc(Nc2nc(N3CCC[C@H](N)C3)ncc2C(N)=O)cc(C(C)C)n1`, the inhibition in test [7] (Compound Concentration 1.0 uM) was -6.11%; in test [1] (Compound Concentration 1.0 uM), 0.673%; in test [2] (Compound Concentration 1.0 uM) it was -3.69%; in test [3] (Compound Concentration 1.0 uM), 11.5%; in test [5] (Compound Concentration 1.0 uM), 11.3%; in test [6] (Compound Concentration 1.0 uM), 25.2%. For the same compound, in test [8] (Compound Concentration 1.0 uM), the inhibition worked out at 1.59%.
Take `CCc1cccc(CC)c1NC(=O)c1nn(C)c2c1CCc1cnc(Nc3ccc(C(=O)NC4CCN(C)CC4)cc3OC(F)(F)F)nc1-2`: the inhibition in test [7] (Compound Concentration 10.0 uM) was 12.9%; in test [1] (Compound Concentration 10.0 uM), -6.43%; in test [2] (Compound Concentration 10.0 uM), 2.12%; in test [3] (Compound Concentration 10.0 uM) it was 13.7%; in test [5] (Compound Concentration 10.0 uM) it was 13.4%; in test [6] (Compound Concentration 10.0 uM) it was 38.9%. Also, the inhibition in test [8] (Compound Concentration 10.0 uM) is 2.73%.
On to `Oc1cc2c(cc1O)C(c1ccccc1)CNCC2` (centres undefined), for which the inhibition was 6.16% in test [1] (Compound Concentration 10.0 uM); -0.945% in test [2] (Compound Concentration 10.0 uM); 7.5% in test [3] (Compound Concentration 10.0 uM); -0.929% in test [4] (Compound Concentration 10.0 uM); -4.15% in test [5] (Compound Concentration 10.0 uM); 16.1% in test [6] (Compound Concentration 10.0 uM).
Regarding `CCC(=O)Nc1cccc(Oc2nc(Nc3ccc(N4CCN(C)CC4)cc3OC)ncc2Cl)c1`, the inhibition was -9.91% in test [7] (Compound Concentration 10.0 uM); -2.48% in test [1] (Compound Concentration 10.0 uM); -1.18% in test [2] (Compound Concentration 10.0 uM); -8.65% in test [3] (Compound Concentration 10.0 uM); 21.8% in test [5] (Compound Concentration 10.0 uM); 56.8% in test [6] (Compound Concentration 10.0 uM). In addition, the inhibition in test [8] (Compound Concentration 10.0 uM) was -2.02%.
